Experimental data as given in patent US4746349A, “Method and compositions for suppressing the nitrification of ammonium in plant growth medium” (American Cyanamid Company, priority 1986, dated 1988).
“And” between values parts separate entries of the source, which are not always exact repeats. Equal entries are not always repeated.

Assays:
Urease = Urease activity of urea amended soil, 38° C., 24 hrs; assay type: biochemical
Method: Urease activity: Five grams (5 g) oven-dry soil is treated with 5 ml of aqueous urea solution (1000 ug/g soil), with or without the test compound, and incubated in 65 ml screw-capped glass bottles at 38° C. for 24 hrs. Three replicates of each treatment are established. Phenylphosphorodiamide (PPD) is used as a urease inhibitor for comparison with Maduramicin monoammonium salt. Urea remaining is determined after extracting the soil for 60 minutes (with shaking) with 50 ml of 2M KCl containing 0.5 ug/ml of phenylmercuric acetate and filtering the soil suspension. Urea in the extract is determined colorimetrically (Douglas & Bremner, 1970). The percentage inhibition is calculated from (A-B)/(C-B) X 100-% inhibition; where A=the amount of urea found after incubation with the compound, B=the amount of urea found in the non-treated soil, and C=the amount of urea added.

[1] = tested on: corn (Dekalb T2000, B73×LH 38); experiment: Field evaluation: yield of corn, silt loam location; assay type: in vivo; details: chemical 0.56 kg/ha
Excerpt: (§1) Field Evaluation: Field evaluations are based on the N content of corn leaf tissue and grain yield utilizing two soil types. Replicate (4X) field plots are established at two different locations, one having (I) silt loam soil and one (II) with sandy loam soil. These soils had been previously cropped to non-fertilized corn to reduce the level of residual N. Maduramicin monoammonium salt is applied (0.25, 0.125, 0.07 ppm) with NH3 (84 or 168 kg N/ha) through a "downstream" by an injection system into silt loam plots. Nitrapyrin (0.25 ppm=0.56 kg a.i./ha), nitrogen checks, benzyl alcohol (1.16L/ha) (BA) and a O nitrogen check are included for comparison. Individual replicate plot sizes are 3.04M×22.8M (4, 76-cm corn rows×22.8M long) Anhydrous ammonia are injected on 76-cm centers.
(§2) Urea, treated or non-treated with Maduramicin monoammonium salt is broadcast on the surface of sandy loam plots. Plots are then planted with corn the day following treatment. Dekalb T2000 is planted 10 May on silt loam plots and Pioneer 3352 is planted 11 May in sandy loam plots.
(§3) Corn ear leaf tissues collected at silking on silt loam plots or 60 days post silking (on silt loam and sandy loam plots) are collected from each plot and assayed for total N (AOAC procedures). Grain yields are determined by harvesting the two center rows×15.2 m of each plot.

Nitrosomonos = experiment: Nitrification of ammonium amended field soil incubated at 38° C. (ammonium recovery, nitrate); details: 0.50 ppm, soil 38° C., 200 ppm N
Method: (§4) Determination of Nitrification Inhibition of Soil amended with 200 ppm of nitrogen as ammonium sulfate and 0.5 ppm of Nitrapyrin or 0.5 ppm of Maduramicin, monoammonium salt.
(§5) Soil samples prepared as described in Example 1 above are incubated at 38° C. for 20 weeks. Samples are taken at intervals during the 20 week period, extracted with 2M KCl (10:1 v/w), and assayed for ammonium nitrite and nitrate by standard steam distillation methods.

Nitrosomonas spp. = experiment: Nitrification of ammonium in soil incubated at 25° C. (ammonium recovery, nitrate accumulation); details: soil 25° C.; for Nitrification (percent nitrified) / Concentration of nitrate nitrogen / Recovery of Ammonium Nitrogen: 0.50 ppm; for Concentration of nitrate nitrogen / Recovery of Ammonium Nitrogen: 200 ppm N
Method: In these evaluations, one hundred grams (100 g) of oven dry, silt loam field soil with low residual nitrogen is added to a 6×12 cm screw-capped glass jar for each sampling date to provide an optimum environment for nitrification.
Two replicates of each treatment-sampling date are established. The soil is adjusted to 50% water saturation with an aqueous solution of ammonium sulfate at 200 ppm N and the chemical to be tested as a nitrification inhibitor at rates of from 0.10 to 0.50 ppm.
Incubation is at either 25° C. or 38° C. for 0, 1, 2, 4, 7, 9, 12, 16 or 20 weeks. Inorganic N is extracted by adding 2M KCl (10:1 v/w) and shaking for one hour, allowing settling for fifteen minutes. A 10 ml aliquot from the supernatant is assayed for ammonium, nitrite and nitrate by standard steam distillation methods (AOAC, pp. 653-655). Nitrapyrin (0.5 ppm) is used as a nitrification inhibitor for comparison. Benzyl alcohol, acetone, and a non-N amended soil are run as controls and as a check on mineralization.
Nitrification: Ammonium recovery and nitrate accumulation are indicative of nitrification, and data obtained with test compounds are reported in Tables I and II.

corn (Pioneer 3352) = experiment: Field evaluation: yield of corn, sandy loam plots; assay type: in vivo; details: sandy loam, chemical 0.56 kg/ha
Excerpt: as §1
Plots are then planted with corn the day following treatment. Dekalb T2000 is planted 10 May on silt loam plots and Pioneer 3352 is planted 11 May in sandy loam plots.
as §3

Nitrobacter spp. = experiment: Nitrite nitrogen in ammonium amended soil incubated at 25° C.; details: 0.50 ppm, soil 25° C., 200 ppm N
Method: Determination of nitrite nitrogen and nitrate nitrogen in soil prepared in Example 1 above, which is amended with 200 ppm of nitrogen as aqueous ammonium sulfate, […], is determined using the nitrite and nitrate analysis of the American Organization of Analytical Chemists (AOAC pp. 653-655).

Nitrabacter = experiment: Nitrite in ammonium amended field soil incubated at 38° C.; details: 0.50 ppm, soil 38° C., 200 ppm N
Method: as §4, §5

[2] = tested on: corn (Dekalb T2000, B73×LH 38); experiment: Field evaluation: corn ear leaf tissue nitrogen, silt loam plots; assay type: in vivo; details: for Corn Leaf Tissue Analysis (total N): inhibitor 0.56 kg/ha, ear leaf at silking
Excerpt: as §1, §2, §3

## NP(N)(=O)Oc1ccccc1 [PPD, Phenylphosphorodiamide]
Urease; (A-B)/(C-B) X 100, urea 1000 ug/g soil
  % INHIBITION (urease): 63%
Urease; average of 3 replicates, urea 1000 ug/g soil
  AVERAGE amount of urea remaining: 769 µg/g
Urease; single replicates, urea 1000 ug/g soil
  AMOUNT REMAINING (urea): 755 µg/g and 767 µg/g and 770 µg/g

## Clc1cccc(C(Cl)(Cl)Cl)n1 [Nitrapyrin]
[1]; N 84 kg/ha
  AVERAGE YIELD 4-REPLICATES: 133.4 HECTOLITERS/HECTARE
[1]; N 168 kg/ha
  AVERAGE YIELD 4-REPLICATES: 148.8 HECTOLITERS/HECTARE
Nitrosomonos; week 0
  Ammonium Recovery, reported as nitrogen: 194 ppm
  Nitrate, reported as nitrogen: 20 ppm
Nitrosomonos; week 1
  Ammonium Recovery, reported as nitrogen: 188 ppm
  Nitrate, reported as nitrogen: 18 ppm
Nitrosomonos; week 2
  Ammonium Recovery, reported as nitrogen: 195 ppm
  Nitrate, reported as nitrogen: 15 ppm
Nitrosomonos; week 4
  Ammonium Recovery, reported as nitrogen: 200 ppm
  Nitrate, reported as nitrogen: 22 ppm
Nitrosomonos; week 7
  Ammonium Recovery, reported as nitrogen: 179 ppm
  Nitrate, reported as nitrogen: 48 ppm
Nitrosomonos; week 9
  Ammonium Recovery, reported as nitrogen: 141 ppm
  Nitrate, reported as nitrogen: 79 ppm
Nitrosomonos; week 12
  Ammonium Recovery, reported as nitrogen: 125 ppm
  Nitrate, reported as nitrogen: 114 ppm
Nitrosomonos; week 16
  Ammonium Recovery, reported as nitrogen: 127 ppm
  Nitrate, reported as nitrogen: 126 ppm
Nitrosomonos; week 20
  Ammonium Recovery, reported as nitrogen: 91 ppm
  Nitrate, reported as nitrogen: 128 ppm
Nitrosomonas spp.; by the 16th week
  Nitrification (percent nitrified): 65%
Nitrosomonas spp.; by the 20th week
  Nitrification (percent nitrified): 87%
Nitrosomonas spp.; 0.5 ppm
  Time through which nitrification is delayed or inhibited: 12 weeks
Nitrosomonas spp.; week 0
  Concentration of nitrate nitrogen: 18 PPM
  Recovery of Ammonium Nitrogen: 193 PPM
Nitrosomonas spp.; week 1
  Concentration of nitrate nitrogen: 11 PPM
  Recovery of Ammonium Nitrogen: 155 PPM
Nitrosomonas spp.; week 2
  Concentration of nitrate nitrogen: 23 PPM
  Recovery of Ammonium Nitrogen: 177 PPM
Nitrosomonas spp.; week 4
  Concentration of nitrate nitrogen: 21 PPM
  Recovery of Ammonium Nitrogen: 185 PPM
Nitrosomonas spp.; week 7
  Concentration of nitrate nitrogen: 25 PPM
  Recovery of Ammonium Nitrogen: 188 PPM
Nitrosomonas spp.; week 9
  Concentration of nitrate nitrogen: 39 PPM
  Recovery of Ammonium Nitrogen: 174 PPM
Nitrosomonas spp.; week 12
  Concentration of nitrate nitrogen: 49 PPM
  Recovery of Ammonium Nitrogen: 184 PPM
Nitrosomonas spp.; week 16
  Concentration of nitrate nitrogen: 148 PPM
  Recovery of Ammonium Nitrogen: 70 PPM
Nitrosomonas spp.; week 20
  Concentration of nitrate nitrogen: 163 PPM
  Recovery of Ammonium Nitrogen: 25 PPM
Corn (Pioneer 3352); N 84 kg/ha as NH3
  AVERAGE YIELD 4-REPLICATES: 160.1 HECTOLITERS/HECTARE
Corn (Pioneer 3352); N 168 kg/ha as NH3
  AVERAGE YIELD 4-REPLICATES: 167.0 HECTOLITERS/HECTARE
Nitrobacter spp.; week 0
  Concentration of nitrite nitrogen: 6 ppm
Nitrobacter spp.; week 1
  Concentration of nitrite nitrogen: 6 ppm
Nitrobacter spp.; week 2
  Concentration of nitrite nitrogen: 3 ppm
Nitrobacter spp.; week 4
  Concentration of nitrite nitrogen: 5 ppm
Nitrobacter spp.; week 7
  Concentration of nitrite nitrogen: -1 ppm
Nitrobacter spp.; week 9
  Concentration of nitrite nitrogen: 8 ppm
Nitrobacter spp.; week 12
  Concentration of nitrite nitrogen: -10 ppm
Nitrobacter spp.; week 16
  Concentration of nitrite nitrogen: 15 ppm
Nitrobacter spp.; week 20
  Concentration of nitrite nitrogen: 34 ppm
Nitrabacter; week 0
  Nitrite, reported as nitrogen: 6 ppm
Nitrabacter; week 1
  Nitrite, reported as nitrogen: 3 ppm
Nitrabacter; week 2
  Nitrite, reported as nitrogen: 12 ppm
Nitrabacter; week 4
  Nitrite, reported as nitrogen: 9 ppm
Nitrabacter; week 7
  Nitrite, reported as nitrogen: -27 ppm
Nitrabacter; week 9
  Nitrite, reported as nitrogen: 14 ppm
Nitrabacter; week 12
  Nitrite, reported as nitrogen: 14 ppm
Nitrabacter; week 16
  Nitrite, reported as nitrogen: 7 ppm
Nitrabacter; week 20
  Nitrite, reported as nitrogen: 27 ppm
[2]; NH3 84 kg N/ha
  Corn Leaf Tissue Analysis (total N): 232 10^2 ug/g
[2]; NH3 168 kg N/ha
  Corn Leaf Tissue Analysis (total N): 291 10^2 ug/g
[2]; silt loam plots
  More nitrogen in leaf tissue than control plots with similar nitrogen: 15-25%
